Laboratory results as given in paper PMC5620620, “Comparison of In Vitro Assays in Selecting Radiotracers for In Vivo P-Glycoprotein PET Imaging” (Pharmaceuticals, 2017).
pEC50: −log10 of the molar value.

Assays:
[1] = parameters: method as in PMID 26043236; details: pH 7.4; cited from earlier work
[2] = system: P-gp; test: In vivo P-gp substrate classification from knockout mice and/or tariquidar-treated rats; details: brain-to-plasma or AUC ratio in at least one strain
[3] = molecular target: T1, P-gp (Homo sapiens, UniProt P08183); test: Calcein-AM inhibition assay in MDCKII-MDR1 cells; format: cell-based; details: non-radioactive compounds
T1 construct: host or cells: MDCKII (canine kidney) cells transfected with human MDR1 cDNA
T1 sequence (P08183 whole entry): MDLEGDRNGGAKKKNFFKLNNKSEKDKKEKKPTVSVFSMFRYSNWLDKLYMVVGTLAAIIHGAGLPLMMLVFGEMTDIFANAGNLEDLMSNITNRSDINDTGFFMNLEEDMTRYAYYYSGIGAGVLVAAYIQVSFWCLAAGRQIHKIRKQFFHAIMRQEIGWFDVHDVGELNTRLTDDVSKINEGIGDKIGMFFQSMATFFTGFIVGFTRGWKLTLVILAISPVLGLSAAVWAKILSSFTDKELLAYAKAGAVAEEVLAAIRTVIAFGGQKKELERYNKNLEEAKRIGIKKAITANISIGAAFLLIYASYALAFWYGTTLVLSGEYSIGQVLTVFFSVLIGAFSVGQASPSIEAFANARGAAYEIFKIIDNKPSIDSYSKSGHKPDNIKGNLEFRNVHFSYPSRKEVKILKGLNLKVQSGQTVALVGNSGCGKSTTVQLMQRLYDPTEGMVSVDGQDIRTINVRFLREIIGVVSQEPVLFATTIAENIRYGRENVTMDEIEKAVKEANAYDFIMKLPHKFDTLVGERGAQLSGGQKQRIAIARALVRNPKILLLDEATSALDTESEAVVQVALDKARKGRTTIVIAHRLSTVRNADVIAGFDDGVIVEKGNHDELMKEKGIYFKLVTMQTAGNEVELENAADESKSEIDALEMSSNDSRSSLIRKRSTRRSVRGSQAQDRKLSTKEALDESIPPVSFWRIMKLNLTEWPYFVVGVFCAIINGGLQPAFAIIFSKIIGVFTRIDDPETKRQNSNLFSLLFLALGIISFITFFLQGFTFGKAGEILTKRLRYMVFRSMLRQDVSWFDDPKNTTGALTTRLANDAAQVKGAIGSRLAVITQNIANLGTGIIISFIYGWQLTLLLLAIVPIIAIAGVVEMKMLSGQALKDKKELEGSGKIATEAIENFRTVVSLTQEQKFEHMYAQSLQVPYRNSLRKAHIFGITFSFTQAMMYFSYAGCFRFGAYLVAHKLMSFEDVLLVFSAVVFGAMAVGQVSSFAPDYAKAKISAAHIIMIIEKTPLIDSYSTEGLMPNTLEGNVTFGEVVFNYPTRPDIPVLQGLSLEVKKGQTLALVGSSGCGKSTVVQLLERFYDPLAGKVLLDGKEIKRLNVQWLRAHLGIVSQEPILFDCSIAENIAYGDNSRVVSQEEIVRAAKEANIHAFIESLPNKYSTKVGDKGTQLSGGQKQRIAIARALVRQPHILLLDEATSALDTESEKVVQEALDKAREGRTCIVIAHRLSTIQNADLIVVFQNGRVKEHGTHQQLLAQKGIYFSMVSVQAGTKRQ
Description: The calcein-AM experiment was performed in MDCKII-MDR1 cells according to methods described previously. Calcein cell accumulation in the absence and in the presence of test compounds (0,1, 1, 10, 30, 50 and 100 µM) was evaluated and the basal level of fluorescence was measured in untreated cells. EC50 values were determined by fitting the fluorescence increase (in %) versus log[dose].

[4] = after 5 min; cited from earlier work
[5] = molecular target: T1, P-gp; test: Bidirectional transport of tritiated compounds in MDCKII-MDR1 cells; format: in vitro ADME; details: for Substrate In Vitro: ER 0.01 µM; for Recovery of radioactivity: all experiments, A → B and B → A directions
Description: (§1) Madin-Darby canine kidney (MDCK) II cells expressing cDNAs encoding human MDR1 (MDCKII-MDR1 cells) were obtained by TNO from the Netherlands Cancer Institute. […] Cells were counted using an automatic cell counter (Millipore, Bedford, MA, USA). […] The medium was refreshed after 48 h. It has been shown, that under these conditions the human transporter protein MDR1 localizes on the apical plasma membrane of the cells.
(§2) After three days of cell culture on Transwell, the MDCKII-MDR1 monolayers are expected to have developed a transepithelial electrical resistance (TEER) of approximately 70 Ωcm^2 higher than background (empty filter without cells). At the start of each study, TEER was measured to assess the integrity of the monolayers of MDCKII-MDR1 cells in culture medium using the Millicell-ERS epithelial voltohmmeter (Millipore). Monolayers with a TEER value less than 55 Ωcm^2 above background (empty filter) were excluded from the transport assay. […] Cell monolayers were also inspected with a microscope before starting the experiments.
(§3) Transcellular transport studies were performed as described previously with minor modifications.
(§4) After the integrity assessment, culture medium was removed from the filter inserts (apical compartment (A)). The inserts were washed once with warm (37 °C) HBSS, transferred to new 12-well plates which were preincubated with HBSS/HEPES for 18 h at 37 °C, to reduce non-specific binding to the plastic, and washed with warm HBSS. The MDR1-mediated apical to basolateral (A → B) transport in MDCKII-MDR1 cell monolayers was determined by addition of 0.65 mL of a tritiated compound in concentrations of 0.01, 1 and 50 µM to the apical compartment in triplicate. A volume of 1.8 mL of HBSS/HEPES was added to the basolateral compartment. To determine basolateral to apical (B → A) transport, 1.95 mL of a tritiated compound at concentrations of 0.01, 1 and 50 µM was added to the basolateral compartment and 0.5 ml of HBSS/HEPES to the apical compartment. A 150 µL aliquot of the apical (A → B) or basolateral (B → A) compartment was taken at the start of the experiment to measure the initial concentration and to calculate the recovery of radioactivity. […] Aliquots of the apical and basolateral samples (150 and 1600 µL for A → B and 400 and 150 µL for B → A, respectively) and samples of the initial concentration were mixed with 10 mL of liquid scintillant Ultima GoldTM (PerkinElmer Inc.). Radioactivity was determined by LSC on a Tri Carb 3100TR liquid scintillation counter using QuantaSmart^TM software (PerkinElmer Inc.) in which all counts were converted to disintegrations per minute (DPM) using tSIE/AEC (transformed spectral index of external standards coupled to automatic efficiency correction). Background values were measured for each sample sequence using liquid scintillant without test samples. Recovery of radioactivity was calculated as percentage of measured total radioactivity after the experiment versus initial radioactivity.
(§5) Subsequently, the effects of MDR1-inhibitors ketoconazole and tariquidar on the bidirectional transport of the tested tritiated compounds were examined. Stock solutions of the inhibitors ketoconazole (10 mM) and tariquidar (10 mM) were prepared in DMSO. […] These concentrations were based on IC50 values that are known to block P-gp completely.
(§6) A is the surface area of the filter insert (cm^2) and C0 the measured initial concentration, calculated from total DPM on the donor side at t = 0 min (DPM/L).
(§7) To determine the ER for the test compounds, the following equation was used:ER = Papp B → A/Papp A → B(2)

[6] = molecular target: T2, P-gp (MDR1) (Homo sapiens, UniProt P08183); test: as above; format: in vitro ADME; details: MDCK-MDR1; for efflux ratio at 2 h, 0.01 µM: human, read-out: ER 0.01 µM
T2 construct: host or cells: MDCKII (canine kidney) cells transfected with human MDR1 cDNA
T2 sequence (P08183 whole entry): as above
Description: as §1, §2, §3, §4, §5, §6, §7

[7] = system: T3, P-gp (human MDR1); test: as above; format: in vitro ADME; details: dog, MDCK-MDR1
T3 construct: host or cells: MDCKII (canine kidney) cells transfected with human MDR1 cDNA

pEC50 [3] | Recovery of radioactivity [5] | efflux ratio at 2 h, 0.01 µM [6] | ER after inhibition with ketoconazole ([5]; MDCKII-MDR1 cells, 0.01 µM + ketoconazole 25 µM) | P-gp substrate behaviour in vitro ([5]; MDCKII-MDR1 cells, concentrations 0.01-50 µM and inhibitors) | ER 0.01 µM ([5]; MDCKII-MDR1 cells, tritiated compound 0.01 µM, Papp B→A/Papp A→B) | Papp A→B at 2 h, 0.01 µM ([6]; dog, MDCKII-MDR1 cells, 0.01 µM) | Papp A→B at 2 h, 1 µM ([6]; dog, MDCKII-MDR1 cells, 1 µM) | efflux ratio at 2 h, 1 µM ([6]; dog, MDCKII-MDR1 cells, 1 µM, read-out: ER) | efflux ratio at 2 h, 50 µM ([6]; dog, MDCKII-MDR1 cells, 50 µM, read-out: ER) | Papp A→B at 2 h, 0.05 µM [7] | Papp B→A at 2 h, 0.05 µM [7] | SMILES | Log D7.4 [1] | Substrate In Vivo [2] | Parent compound, of total activity in plasma [4] | Substrate In Vitro ([5]; MDCKII-MDR1 cells)
 |  |  |  |  |  |  |  |  |  |  |  | COc1cc2c(cc1OC)CN(CCCC1CCCc3c(OCCF)cccc31)CC2 (stereo not shown) [MC225] | 3.0 | + (in vivo brain-to-plasma or AUC ratio > 2 in at least one strain) |  | 
5.96 | ≥ 76% | 2.8 |  |  |  |  |  |  |  |  |  | COc1ccc(CCN(CCF)CCC[C@](C#N)(c2ccc(OC)c(OC)c2)C(C)C)cc1OC [N-FeVer, (R)-N-[^18F]fluoroethylverapamil] | 2.0 | + (in vivo brain-to-plasma or AUC ratio > 2 in at least one strain) | 46% | + (Definition as substrate (+) in vitro was ER > 2)
5.62 | ≥ 76% | 37 | higher than 2 | behaved like a P-gp substrate | > 30 | < 2 ×10⁻⁶ cm/s | < 2 ×10⁻⁶ cm/s | > 30 | > 2 |  |  | COc1ccc([C@@](C#N)(CCCNCCc2ccc(OCCF)c(OC)c2)C(C)C)cc1OC [O-FeVer, (R)-O-[^18F]fluoroethylnorverapamil] | 1.6 | + (in vivo brain-to-plasma or AUC ratio > 2 in at least one strain) | 20% | + (Definition as substrate (+) in vitro was ER > 2)
 |  |  |  |  |  |  |  |  |  | < 1 ×10⁻⁶ cm/s | > 15 ×10⁻⁶ cm/s | C[C@H]1O[C@@H](O[C@H]2[C@@H](O)C[C@H](O[C@H]3[C@@H](O)C[C@H](O[C@H]4CC[C@@]5(C)[C@H](CC[C@@H]6[C@@H]5C[C@@H](O)[C@]5(C)[C@@H](C7=CC(=O)OC7)CC[C@]65O)C4)O[C@@H]3C)O[C@@H]2C)C[C@H](O)[C@@H]1O [[^3H]Digoxin, digoxin] |  |  |  | 
